{"source": "patent US7763708B2", "about": "“Methods and compositions for modulating C5-a-mediated inflammatory responses” (Institute for Protein Science Co., Ltd., priority 2004, dated 2010)", "key": {"C5a [1]": {"molecular_target": "T1, C5a (Homo sapiens, UniProt P01031)", "T1 sequence (P01031 678-751 limits assumed)": "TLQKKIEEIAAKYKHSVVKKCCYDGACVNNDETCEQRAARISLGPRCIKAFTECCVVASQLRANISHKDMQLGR", "test": "Intracellular Ca++ mobilization in neutrophils triggered by C5a (calcium imaging)", "format": "cell-based", "procedure": "Neutrophils were isolated from fresh human blood with 0.2% EDTA as an anticoagulant. Whole blood was collected from a healthy volunteer (a collaborator of this study) via vein puncture. A 2.4 ml aliquot of blood was then layered onto 2 ml Mono-Poly Resolving Medium (Dainihon Seiyaku, Tokyo, Japan) in a centrifuge tube and centrifuged at 400 g for 20 min at room temperature. The polymorphonuclear leukocytes (neutrophils) were then harvested and the cell fraction was washed with Hanks' balanced salt solution (HBSS).\nThe isolated neutrophils were loaded with 2 μM Fura-2/AM (Molecular Probes, Eugene, Oreg.) mixed with 0.02% Pluronic F-127 (Molecular Probes) and 0.2% DMSO in HBSS for 40 min at 37° C. The suspension was agitated to prevent sedimentation. After loading, the cells were washed with HBSS twice and suspended in HBSS containing 0.3% BSA (HBSS/BSA). Approximately 1×10^6 cells in 900 μl HBSS/BSA were added to a poly-L-lysine-coated 35 mm Petri dish and allowed to attach to the bottom of the dish for 30 min. Changes in intracellular calcium concentrations in response to C5a or a mixture of peptides (C-peptides and C5a) were determined by monitoring the ratio of fluorescence light emission at 5I0 nm as a result of excitation at 340 and 380 nm at 37° C. using an ARGUS HiSCA calcium imaging system (Hamamatsu Photonics, Hamamatsu, Japan). The mixture of peptides and C5a was incubated in an Eppendorf tube on ice for 30 min in the HBSS solution and then applied to the cells after a 2 min baseline recording.\nThe effect of C-peptides on C5a function was analyzed by measuring Ca^++ mobilization using an ARUGUS HiSCA calcium imaging system. Administration of 0.7 nM recombinant human C5a (RhC5a) induced a transient increase in the level of intracellular Ca^++ of human neutrophils (FIG. 3a). The level of this activation was about 50% of the maximum achieved with higher concentrations of C5a. A mixture of C-peptide and C5a was incubated in an Eppendorf tube on ice for 30 min in the HBSS solution and then applied to the cells. […]"}, "[2]": {"test_system": "TGW human neuroblastoma cells bearing C5aR", "test": "Patch clamp measurement of inward ion current pulses induced by PL37-MAP", "format": "cell-based", "conditions": "500 nM PL37-MAP", "procedure": "The measurements were carried out on TGW human neuroblastoma cells bearing C5aR. Cells were voltage-clamped at room temperature at a holding potential of −70 mV using a whole cell clamp configuration. The instruments used for electrophysiology were as follows: an Axopatch 200-A patch clamp amplifier, a Digidata-1200 data acquisition system and pCLAMP 6.02 software from Axon Instruments Inc., (Foster City, Calif.). The head stage of the amplifier was fitted to an MHW-3 hydraulic manipulator manufactured by Narishige Inc. (Tokyo, Japan); and the cells were visualized using an Olympus IMT-2 invert microscope. Data acquisition and analysis were performed using an IBM compatible personal computer. Patch electrodes (OD=1.5 mm, thin wall, Garner Glass Co., Claremont, Calif.) were pulled with a PP-83 puller and polished with an MF-83 microforge (Narishige Inc). The resistance of patch electrodes was 8-10 MΩ. The solutions used were as follows: an extracellular solution (10 mM Hepes, 140 mM NaCl, 5 mM KCI, 2 mM CaCl2, 2 mM MgCl2, 10 mM glucose, pH=7.34) and an intracellular pipette solution (10 mM Hepes, 110 mM KCl, 15 mM NaCl, 0.1 mM CaCl2, 2 mM MgCl2, 1 mM EGTA, pH 7.25). […]\nInward calcium current pulses detected by a patch clamp assay were evoked when TGW cells were exposed to 500 nM PL37-MAP (FIG. 2a). […]"}, "C5a [3]": {"molecular_target": "T1, C5a", "test": "Surface plasmon resonance (Biacore) binding of C-peptides to immobilized C5a", "parameters": "Complement anaphylatoxin C5a is a 74-amino acid peptide generated from the fifth component of complement (C5)", "conditions": "PBS, 25° C., 10 μl/min, EA-blocked cell subtracted", "procedure": "(§1) Binding interactions between PL37 or C5a with C-peptides were evaluated using surface plasmon resonance (SPR) technology with the Biacore system. PL37 and C5a were covalently immobilized on the CM5 sensor chip by amine coupling methods using N-ethyl-N-(dimethylaminopropyl)carbodiimide/N-hydroxysuccinimide (EDC/NHS) according to the manufacturer's instructions. We activated the surface of the CM5 sensor chip with EDC/NHS for 20 min before injection with PL37-MAP (200 μg/ml in 10 mM sodium carbonate buffer, pH 8.5, over flow cell 2) or C5a (100 μg/ml in 10 mM acetate buffer, pH 5, over flow cell 3). Afterwards, excess NHS was deactivated for 20 min with 1 M ethanolamine hydrochloride (EA), pH 8.5. The reference flow cell was activated with EDC/NHS, and blocked with EA. Coupling was performed at a flow rate of 5 μl/min at 25° C. in PBS. Analyte (30 μl of C-peptide A or B) was injected at 10 μl/min at 25° C. in PBS. Binding interactions were determined by passing samples simultaneously over both the EA-blocked cell and the flow cell with immobilized PL37 or C5a so as to obtain units of resonance response (RU) by subtraction of the background using Biacore software (BIA evaluation).\nBinding of C-peptides to C5a was also examined. C5a was covalently coupled to a CM5 sensor chip resulting in a net increase of 5,770 RU. […]"}, "PL37-MAP": {"molecular_target": "PL37-MAP (Homo sapiens, UniProt P01031)", "test": "Surface plasmon resonance (Biacore) binding of C-peptides to immobilized PL37-MAP", "conditions": "PBS, 25° C., 10 μl/min, EA-blocked cell subtracted", "procedure": "as §1\nThe Biacore instrument which uses SPR technology measures association and dissociation in real time of an unlabeled analyte with an immobilized ligand. […]"}, "[4]": {"test_system": "Rat Lethal Shock Model (C5a-mediated)", "test": "Rat lethal shock induced by anti-Crry antibody following LPS priming", "format": "in vivo", "procedure": "Administration of anti-rat Crry mAb (5I2) (Takizawa et al., J. Immunol. 152:3032, 1994) induces lethal shock in rats primed with a trace amount of lipopolysaccharide (LPS) (Matsuo et al., J. Exp. Med. 180:1619, 1994; Mizuno et al., J. Immunol. 162:5477, 1999). With this model, all rats sensitized with 0.05 mg/kg of LPS died within 30 min of injection of mAb 512. Male Wistar rats weighing about 250 g were purchased from Chubu Kagaku Shizai (Nagoya, Japan) and were allowed free access to food and water. Each rat was injected with 0.05 mg/kg of LPS, prepared from a phenol extraction of Salmonella typhosa (Sigma Chemical Co., St. Louis, Mo.) in 250 μl saline. Then, 0.75 mg/kg of 5I2 was administered 20 h later. Ten minutes before the injection of 5I2, saline or C-peptides in saline were injected. All injections were intravenously administered through the tail vein. Animal experiments were carried out according to Nagoya City University Guideline for the Care and Use of Experimental Animals and approved by the Nagoya City University Graduate School of Medical Sciences Animal Care Committee.\nAdministration of 0.75 mg/kg anti-rat Crry monoclonal antibody (Takizawa et al., J. Immunol. 152:3032, 1994) induces rapid lethal shock in rats primed with 0.05 mg/kg of LPS 20 h earlier (Matsuo et al., J. Exp. Med. 180:1619, 1994; Mizuno et al., J. Immunol. 162:5477, 1999). […] In order to investigate the inhibitory effect of the C-peptides in this model, we injected rats with saline (for the control) or C-peptides in 250 μl of saline 10 min before the 5I2 injection. All rats injected with saline died within 30 min (Table 1). However, all rats injected with 4 mg/kg of Pep-A survived. […] Some of the surviving rats stopped breathing briefly in the first 1 or 2 min after injection of 5I2, but were soon breathing again and about 20-40 min later began moving."}, "skin reaction of rats": {"test_system": "skin reaction of rats", "test": "Skin reaction of rats: Evans Blue exudation after intradermal 5I2 (anti-Crry mAb)", "format": "in vivo, rat", "procedure": "Within one exemplary embodiment illustrating construction of useful C5a-modulatory peptide analogs and mimetics from a direct C5a complement peptide (or reference C5a-modulatory peptide sequence), an acetylated derivative of Pep-A (A-Pep-A) was constructed and tested for use within the methods and compositions of the invention. A-Pep-A is a peptide with the same sequence as that of Pep-A with acetylated alanine at the amino-terminal amino acid. Effect of A-Pep-A was tested on the lethal shock of mice induced by intravenous administration of CAWS (Candida albicans water soluble extract). […] ICR mice were injected with 4 mg/kg of A-Pep-A intraperitonally (i.p.) or intravenously (i.v.) 10 min before i.v. challenge with […] 100 μg CAWS. […] Effect of A-Pep-A was also evaluated on the skin reaction of rats. […]"}, "ICR mice": {"test_system": "ICR mice", "test": "Lethal shock of mice induced by intravenous CAWS (Candida albicans water soluble extract)", "format": "in vivo, mouse", "procedure": "Within one exemplary embodiment illustrating construction of useful C5a-modulatory peptide analogs and mimetics from a direct C5a complement peptide (or reference C5a-modulatory peptide sequence), an acetylated derivative of Pep-A (A-Pep-A) was constructed and tested for use within the methods and compositions of the invention. A-Pep-A is a peptide with the same sequence as that of Pep-A with acetylated alanine at the amino-terminal amino acid. Effect of A-Pep-A was tested on the lethal shock of mice induced by intravenous administration of CAWS (Candida albicans water soluble extract). […] ICR mice were injected with 4 mg/kg of A-Pep-A intraperitonally (i.p.) or intravenously (i.v.) 10 min before i.v. challenge with […] 100 μg CAWS. […] Effect of A-Pep-A was also evaluated on the skin reaction of rats. As an indicator dye of vascular exudation, rats were i.v. injected with 0.5 ml of Evans Blue (8 mg/ml in saline) 30 min before intradermal (i.d.) injection of 5 μg 512 (anti-Crry monoclonal antibody) together with Pep-A, A-Pep-A of saline control)."}, "[5]": {"conditions": "4 mg/kg i.v. 10 min before anti-Crry mAb"}}, "note": "“And” between values parts separate entries of the source, which are not always exact repeats. Equal entries are not always repeated. “Also recorded” adds a separate entry of the source. Ends that are not written are not given here."}
{"substance": "ASTAPARAGLPRLPKFF [Pep-B]", "values": [{"measurement": "Inhibition of C5a-triggered Ca++ mobilization", "setting": "C5a [1]; 0.7 nM C5a, 70 nM C-peptide, human neutrophils", "result": "failed to cause inhibition; also recorded: no inhibition"}, {"measurement": "Inhibition of C5a-triggered Ca++ mobilization", "setting": "C5a [1]; 0.7 nM C5a, 700 nM C-peptide, human neutrophils", "result": "failed to cause inhibition; also recorded: no inhibition"}, {"measurement": "Inhibition of inward ion current pulse evoked by PL37-MAP", "setting": "[2]; 50 μM C-peptide", "result": "did not have any effect; also recorded: did not block"}, {"measurement": "Binding to C5a-coupled flow cell", "setting": "C5a [3]", "result": "did not"}, {"measurement": "Binding to PL37-MAP-coupled flow cell", "setting": "PL37-MAP", "result": "did not"}, {"measurement": "Survival rate (%)", "setting": "[4]; [5]", "result": 0, "unit": "%"}, {"measurement": "Surviving/total number of rats", "setting": "[4]; [5]", "result": "died and 0/4"}]}
{"substance": "A-Pep-A: Peptide with the same sequence as Pep-A with acetylated alanine at the amino-terminal amino acid (Ac-ASGAPAPGPAGPLRPMF)", "values": [{"measurement": "Blue spots at 2 h", "setting": "skin reaction of rats; 5I2 2.5 μg + peptide 40 μg i.d., spots measured from reverse side of removed skin", "result": "3 +/− 1"}, {"measurement": "Inhibition of dye exudation / skin inflammation", "setting": "skin reaction of rats; summary of Table 3", "result": "suppressed the dye exudation"}, {"measurement": "Inhibition of C5a-triggered Ca++ mobilization", "setting": "C5a [1]; 1 nM C5a, 350 nM peptide, human neutrophils (FIG. 5)", "result": "completely inhibited; also recorded: much stronger effect than Pep-A"}, {"measurement": "Dead/total", "setting": "ICR mice; 4 mg/kg i.p., CAWS 100 μg/mouse", "result": "3/3"}, {"measurement": "Dead/total", "setting": "ICR mice; 4 mg/kg i.p., CAWS 200 μg/mouse", "result": "3/3"}, {"measurement": "Dead/total", "setting": "ICR mice; 4 mg/kg i.v., CAWS 100 μg/mouse", "result": "rescued half of mice"}, {"measurement": "Dead/total", "setting": "ICR mice; 4 mg/kg i.v., CAWS 100 μg/mouse, listed as A-PepA", "result": "2/4"}, {"measurement": "Dead/total", "setting": "ICR mice; 4 mg/kg i.v., CAWS 200 μg/mouse", "result": "3/3"}]}
{"substance": "PL37-MAP: PL37 (C5a fragment aa 37-53, RAARISLGPRCIKAFTE, SEQ ID NO: 2) in multiple antigenic peptide form (also: multiple antigenic peptide form on lysine core) [reference compound]", "values": [{"measurement": "Amplitude of induced inward current pulses", "setting": "[2]", "result": 500, "unit": "pA"}]}
{"substance": "ASGAPAPGPAGPLRPMF [Pep-A, ASGAPAPGPAGPLRPMF]", "values": [{"measurement": "Time in which peptide had been degraded in vivo", "setting": "[4]; rat, inferred from loss of effect at 30 min pre-dosing", "result": "≤ 30", "unit": "min"}, {"measurement": "Harmful / side effects of the peptide in rats", "setting": "[4]; rats injected with Pep-A (LPS sensitized, without anti-Crry mAb)", "result": "survived with no harmful effect; also recorded: without any noticeable deleterious side effects"}]}
